Measured values: patent publication US12194201B2, “Silica nanoparticle doped conductive polymer” (University of Pittsburgh—Of the Commonwealth System of …, priority 2019, dated 2025)

Tests used:
neural activity = assay: In vivo DNQX release from PEDOT/SNP coated carbon fiber electrode, GCaMP imaging; settings: DNQX loaded PEDOT/SNP on carbon fiber electrode, reducing potential, GCaMP mouse
Source text: Next, we aimed to modulate cellular activity by release of the glutamate AMPA/Kainate receptor antagonist 6,7-dinitroquinoxaiine-2,3-dione (DNQX). DNQX is a small, negatively charged compound that blocks glutamate transmission. We have previously observed that DNQX may be loaded and electrically released from PEDOT/CNT films in vivo and produce a transient (<6 second) inhibition of sensory evoked neural activity recorded in barrel cortex of rats.^[9] In this study, DNQX release from PEDOT/SNP was assessed using a GCaMP mouse model. The GCaMP fluorescence is tied directly to intracellular calcium activity, such that when neurons fire action potentials, the calcium influx cause GCaMP to produce a bright green fluorescence. […]
All animal work was performed under the guidelines of the University of Pittsburgh Institutional Animal Care and Use Committee (IACUC). […] First, a 2-minute baseline was recorded. […] Following 10 cycles of stimulation, a final 2-minute baseline recording was performed Calculations of fluorescence are made by first masking the electrode. A background fluorescence was determined by averaging all frames together, allowing for representation of small time windows as the % change vs the background intensity as shown below.
The inter-pulse fluorescence was determined by Δf during the reducing voltage, and comparing this to the Δf during the prior oxidative voltage (V>−0.2).

[1] = tested on: sensory evoked neural activity recorded in barrel cortex; settings: released from PEDOT/CNT films, rat barrel cortex; cited from earlier work
[2] = K3[Fe(CN)6] reduction (Prussian blue) antioxidant assay of released melatonin
Experimental: 1 mL of solution was removed and added to 0.8 mL of water, followed by the addition of 200 μL of FeCl3(0.01%, 6 μM), creating a deep blue dye. The absorbance of the resulting solution was measured at 700 nm.

[3] = tested on: highly aggressive proliferating immortalized (HAPI) microglia cells; assay: Live/Dead staining of cells on polymer substrate; assay type: cell-based; settings: 2 days, Triton-X 0.2% positive control on TCPS
Experimental: A cytotoxicity assessment was performed on the PEDOT/SNP composite. Both PEDOT^[51] and silica nanoparticles^[40] have each been successfully employed in in vivo applications. However, small changes to the surface chemistry of the silica nanoparticle warrant investigation into the potential for adverse biological interactions. The commonly employed polymer PEDOT/PSS itself has been previously characterized as non-toxic;^[52] and was used as an ideal reference for the toxicity testing of the PEDOT/SNP. The biocompatibility of the PEDOT/SNP surface was evaluated by directly culturing highly aggressive proliferating immortalized (HAPI) microglia cells on the substrate. After 2 days, XTT was used to measure to metabolic activity of the cells. […] A small degree of auto-fluorescence is detectable for both polymer coatings, resulting in a slight amount of red and green background. […] Given these findings, we can expect that the PEDOT/SNP surface is safe and non-toxic for acute experimentation, while chronic biocompatibility should still be evaluated. […]
XTT assay was performed as directed by the distributer. […] Cells were incubated for 3 hours and the absorbance of the supernatant was measured at 450 nm. […] Cells were incubated for 1 hour and imaged with fluorescence microscopy.

[4] = tested on: 3T3 mouse fibroblast cells; assay: 3T3 viability (XTT) after incubation with released Dox; assay type: cell-based; settings: 3-day incubation
Experimental: (§1) Electrochemical methods of drug release may alter the activity of a compound due to the applied potentials, and it is therefore important to verify that the loading and release process doesn't compromise the drug's bioactivity. […] For Dox, a potent chemotherapeutic, release was performed for 0 (passive diffusion for 24 hours), 20, or 200 cycles into serum free DMEM. A small amount of diffusion release was observed from Dox loaded electrodes, as measured by absorbance at […]. […] Released Dox was introduced to cultured 3T3 mouse fibroblast cells (FIG. 7B) and the toxicity was compared to freshly prepared Dox solution at the same concentration. After a 3-day incubation period, the viability of the 3T3 cells was evaluated with the XTT assay. […] Therefore, even though we detected a minute amount of Dox in the diffusion control, this quantity is below the toxic level.
XTT assay was performed as directed by the distributer. In brief, 2,3-Bis-(2-Methoxy-4-Nitro-5-Sulfophenyl)-2H-Tetrazolium-5-Carboxanilide (XTT, Invitrogen, 1 mg ml^−1) was added to culture media. 10 μl of phenazine methosulfate (PMS, 10 mM) was added to XTT/media solution (4 ml) just prior to the addition of XTT solution (50 uL) per well. Cells were incubated for 3 hours and the absorbance of the supernatant was measured at 450 nm. HAPI cells were imaged with a Live/Dead assay (Invitrogen). Supernatant solution was removed and replaced with 1/1000 dilutions for Propidium Iodide and Calcein AM in PBS. Cells were incubated for 1 hour and imaged with fluorescence microscopy.
Dox was loaded and released from PEDOT/SNP films as described above. 3T3 cells were cultured in 48 well plates for 2 days to reach semi-confluency, at which point the culture media was removed and replaced with serum-free media containing stock dox, released dox, or no dox. Cells were culture for 72 h, at which point the media was aspirated and the viability of the cells measured with XTT assay as described above.

[5] = Dox release from PEDOT/SNP film into serum free DMEM; assay type: physicochemical
Experimental: as §1
5 mg of mesoporous SNP were sonicated with 200 μl of drug solution for 20 minutes prior to the particles being collected by centrifuge and dried under vacuum.
5 mg of drug loaded particles were suspended in 3 ml of EDOT (0.01M) solution in water. Electropolymerization was carried out for 200 seconds on 2 mm diameter gold electrodes or 70 μm diameter Pt/Ir wires (A-M systems, 90/10 Pt/Ir). Electrodes were then washed with PBS on an orbital shaker for 2 hours then soaked overnight to remove any adsorbed drugs.

[6] = Electrically controlled dye loading and release from PEDOT/SNP films in PBS; assay type: physicochemical
Source text: Drug loading and release from conducting polymers with electrical control offers a precise method for pharmacological delivery directly to the site of implantation on demand. Mesoporous SNP were employed for drug delivery due to their exceptionally high loading volume. Rhodamine and fluorescein were used as model drugs for quantifying drug release profile. Fluorescein has a negative charge while rhodamine-b is positively charged, and the combination of rhodamine and fluorescein allow for a better understanding of how oppositely charged compounds can be released from PEDOT/SNP films. The drug loading and release mechanism is depicted in FIG. 2. Nanoparticles were suspended in an aqueous solution of fluorescein, rhodamine, or a combination of both, and sonicated to encourage the entry of the dye into the pores. Loaded sulfonate nanoparticles are then collected from solution by centrifuge then resuspended in an aqueous solution of EDOT. PEDOT/SNP films are polymerized under constant current, producing a film of polymer gated silica nanoparticles. An immediate observation made was the ease of polymerization when the dye was loaded into SNPs prior to polymerization vs without SNPs, with electrode potential being substantially lower for electro-polymerization of drug loaded SNP (FIG. 11). After polymerization, electrodes coated with the dye-loaded composite were examined under a fluorescent microscope to observe the release in phosphate buffered saline (PBS) in real time (FIG. 12). A cyclic voltage sweep from 0.8V to −0.6V was used to trigger drug release from the coatings. We observed a halo of fluorescence surrounding the electrode upon stimulation, which dissipates within seconds of the end of stimulation.
We further quantified the amount of release over number of stimuli from PEDOT/SNP composite and compared the performance to a control group of PEDOT loaded with the dye directly without the mesoporous SNP. Control and SNP dopant groups were polymerized to the same charge density. […]

For 6,7-dinitroquinoxaline-2,3-dione [DNQX], the “GCaMP fluorescence intensity during DNQX release vs prior” value (neural activity) is given as “significant decrease” and the “duration of transient inhibition of sensory evoked neural activity” value [1] is given as less than 6 s.

In the case of `COc1ccc2[nH]cc(CCNC(C)=O)c2c1` [melatonin], the “change in absorbance at 700 nm (antioxidant capacity)” value ([2]; melatonin released from PEDOT/SNP film) is reported as “significant change in the absorbance” and the “change in absorbance at 700 nm (antioxidant capacity)” value ([2]; stock melatonin) is reported as “significant change in the absorbance”.

In the case of Triton-X, the “Live dead staining of the cells on the substrate” value [3] is reported as “no viable cells”.

For `COc1cccc2c1C(=O)c1c(O)c3c(c(O)c1C2=O)C[C@@](O)(C(=O)CO)C[C@@H]3O[C@H]1C[C@H](N)[C@H](O)[C@H](C)O1` [Dox, Doxorubicin], the “effect of released Dox vs concentration-matched stock Dox” value [4] was “no difference”, the “3T3 viability vs standard culture media” value ([4]; diffusion control (0 cycles, passive diffusion 24 hours)) was “No significant difference” and the “3T3 viability vs control” value ([4]; released Dox from 20 stimulations) was “significantly reduced the viability”. For the same compound, the “3T3 viability vs control” value ([4]; released Dox from 200 stimulations) was “significantly reduced the viability”, the “Dox released from PEDOT/SNP film” value ([5]; 20 stimulations) was 1.44 μg cm^−2 and the “Dox released from PEDOT/SNP film” value ([5]; 200 stimulations) was 7.4 μg cm^−2.

For `CCN(CC)c1ccc2c(-c3ccccc3C(=O)O)c3ccc(=[N+](CC)CC)cc-3oc2c1` [rhodamine, rhodamine-b], the “quantified fluorescent intensity during release vs after” value ([6]; PBS, cyclic voltage sweep 0.8V to −0.6V, dye-loaded PEDOT/SNP) was “significantly higher”, the “dye release relative to control sample” value ([6]; over 9,000 (fluorescein) and 5,000 (rhodamine) stimulations, control PEDOT loaded with dye without SNP) was “substantial increase” and the “Overall drug loading increase when SNP used as a reservoir” value ([6]; vs PEDOT loaded with the dye directly, same charge density) was 16.8 ×.
